Activity, inhibition and inhibition in vivo data for 31 molecules are collected here from ChEMBL document CHEMBL1909631, “Synthesis and anti-inflammatory activity of some new 4,5-dihydro-1,5-diaryl-1H-pyrazole-3-substituted-heteroazole derivatives” (Bioorg Med Chem Lett, 2011).

Structures are written as SMILES.

Data set [1] relates to Rattus norvegicus. Description: Antiinflammatory activity in Wistar rat assessed as protection against carrageenan-induced paw edema at 100 mg/kg, po administered 1 hr before carrageenan challenge measured after 4 hrs relative to control. It counts as functional. (The carrageenan paw model is a standard test of acute inflammation.)
The target in data set [2] is T1, Prostaglandin G/H synthase 2 (Homo sapiens) (UniProt P35354).
T1 sequence (whole entry): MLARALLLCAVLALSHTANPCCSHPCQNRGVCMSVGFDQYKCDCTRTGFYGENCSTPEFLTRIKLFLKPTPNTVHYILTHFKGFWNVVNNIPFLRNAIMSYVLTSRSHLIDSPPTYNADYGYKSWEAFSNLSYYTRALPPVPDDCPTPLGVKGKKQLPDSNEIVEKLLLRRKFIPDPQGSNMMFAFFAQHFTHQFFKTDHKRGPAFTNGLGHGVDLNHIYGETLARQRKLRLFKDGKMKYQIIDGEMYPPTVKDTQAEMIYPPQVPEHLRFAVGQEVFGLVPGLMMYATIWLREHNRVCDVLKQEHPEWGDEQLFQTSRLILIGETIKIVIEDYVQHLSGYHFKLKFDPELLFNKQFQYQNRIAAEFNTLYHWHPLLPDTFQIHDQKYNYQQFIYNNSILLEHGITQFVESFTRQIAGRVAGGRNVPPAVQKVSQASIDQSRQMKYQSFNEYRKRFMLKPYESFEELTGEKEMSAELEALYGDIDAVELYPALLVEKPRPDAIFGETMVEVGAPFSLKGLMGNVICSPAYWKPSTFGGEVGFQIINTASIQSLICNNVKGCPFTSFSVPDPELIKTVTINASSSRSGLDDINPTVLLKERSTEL
The experiment in a line: Inhibition of COX2 in human whole blood at 10 uM.

Data set [3] deals with Rattus norvegicus. The experiment in a line: Ulcerogenicity in fasted Wistar rat assessed as ulceration at 300 mg/kg, po administered every 2 hrs. It counts as toxicity, organism-based. Set-up: dose 300 mg/kg, route oral. The following applies: in vivo.
The test system of data set [4] is Rattus norvegicus. Description: Analgesic activity in Wistar rat assessed as inhibition of acetic acid-induced writhing at 100 mg/kg, po administered 1 hr before acetic acid challenge measured after 30 mins relative to control. It is filed as functional. Background: Writhing tests count abdominal constrictions after an irritant is injected.

Turning to `Sc1nc(C2=NN(c3ccccc3)C(c3ccc(Cl)cc3)C2)no1` (stereo not given), the Activity with Rattus norvegicus [1] came to 40.51%.

Regarding `Clc1ccc(C2CC(c3nn[nH]n3)=NN2c2ccccc2)cc1` (stereo not given), the Activity in the data set with Rattus norvegicus [1] turned out to be 37.8%.

With `N#CC1=NN(c2ccccc2)C(c2ccc(Cl)cc2)C1` (racemic), in the data set with Rattus norvegicus [1], the Activity turned out to be 39.43%.

With `N#CC1=NN(c2ccc(S(N)(=O)=O)cc2)C(c2ccc(Cl)cc2)C1` (racemic), the Activity in the data set on Rattus norvegicus [1] is reported as 49.67%.

Turning to `Oc1nnc(C2=NN(c3ccccc3)C(c3ccc(Cl)cc3)C2)o1` (racemic), the Activity in the data set on Rattus norvegicus [1] was found to be 24.26%.

On to `NS(=O)(=O)c1ccc(N2N=C(c3nnc(O)o3)CC2c2ccc(Cl)cc2)cc1` (racemic), for which the Activity in the data set on Rattus norvegicus [1] is reported as 35.38%.

Take `Sc1nnc(C2=NN(c3ccccc3)C(c3ccc(Cl)cc3)C2)o1` (racemic): the Activity in the data set on Rattus norvegicus [1] was 32.74%.

With `NS(=O)(=O)c1ccc(N2N=C(c3nnc(S)o3)CC2c2ccc(Cl)cc2)cc1` (racemic), the Activity in the data set on Rattus norvegicus [1] was 36.76%.

Take `Nc1nnc(C2=NN(c3ccccc3)C(c3ccc(Cl)cc3)C2)o1` (racemic): in the data set with Rattus norvegicus [1], the Activity came out at 4.5%.

For the molecule `Nc1nnc(C2=NN(c3ccc(S(N)(=O)=O)cc3)C(c3ccc(Cl)cc3)C2)o1` (racemic), the Activity in the data set on Rattus norvegicus [1] was 18.38%.

Turning to `CSc1nnc(C2=NN(c3ccccc3)C(c3ccc(Cl)cc3)C2)s1` (racemic), the Activity in the data set on Rattus norvegicus [1] worked out at 11.84%.

In the case of `CSc1nnc(C2=NN(c3ccc(S(N)(=O)=O)cc3)C(c3ccc(Cl)cc3)C2)s1` (racemic), in the data set with Rattus norvegicus [1], the Activity was 26.12%.

As for `Oc1nc(C2=NN(c3ccccc3)C(c3ccc(Cl)cc3)C2)no1` (racemic), the Activity in the data set with Rattus norvegicus [1] is 32.68%.

As to `NS(=O)(=O)c1ccc(N2N=C(c3noc(O)n3)CC2c2ccc(Cl)cc2)cc1` (racemic), the Activity in the data set on Rattus norvegicus [1] stood at 46.18%.

As for `NS(=O)(=O)c1ccc(N2N=C(c3noc(S)n3)CC2c2ccc(Cl)cc2)cc1` (racemic), in the data set with Rattus norvegicus [1], the Activity came to 48.82%.

Regarding `Cc1nnc(C2=NN(c3ccccc3)C(c3ccc(Cl)cc3)C2)o1` (racemic), the Activity in the data set on Rattus norvegicus [1] is recorded as 16.45%.

As for `FC(F)(F)c1nnc(C2=NN(c3ccccc3)C(c3ccc(Cl)cc3)C2)o1` (racemic), the Activity in the data set on Rattus norvegicus [1] is -46.9%.

In the case of `CCOC(=O)c1nnc(C2=NN(c3ccccc3)C(c3ccc(Cl)cc3)C2)o1` (racemic), in the data set with Rattus norvegicus [1], the Activity is 4.5%.

For the molecule `CCOC(=O)Cc1nnc(C2=NN(c3ccccc3)C(c3ccc(Cl)cc3)C2)o1` (racemic), in the data set with Rattus norvegicus [1], the Activity is listed as -17.6%.

`O=C(O)c1nnc(C2=NN(c3ccccc3)C(c3ccc(Cl)cc3)C2)o1` (racemic): the Activity with Rattus norvegicus [1] was -19.3%.

For `O=C(O)Cc1nnc(C2=NN(c3ccccc3)C(c3ccc(Cl)cc3)C2)o1` (racemic), the Activity in the data set on Rattus norvegicus [1] turned out to be 7.46%.

In general, inhibition refers to how much of the control response was suppressed. A lower inhibition goes with little suppression. Broadly, the inhibition in vivo is how much of the control response was suppressed. Regarding `Cc1nc(C2=NN(c3ccccc3)C(c3ccc(Cl)cc3)C2)no1` (racemic), the Activity in the data set on Rattus norvegicus [1] is reported as 49.24%; in the data set with Rattus norvegicus [3], “Non-toxic”. The same molecule returned an inhibition in data set [2] of 4%. Further, in the data set with Rattus norvegicus [4], the inhibition in vivo at 100 mg/kg stood at 23.7%.

As to `FC(F)(F)c1nc(C2=NN(c3ccccc3)C(c3ccc(Cl)cc3)C2)no1` (racemic), the Activity is given as 49.45% in the data set with Rattus norvegicus [1] and “Non-toxic” in the data set on Rattus norvegicus [3]. For the same molecule, the inhibition in data set [2] came to 6%. Further, the inhibition in vivo at 100 mg/kg with Rattus norvegicus [4] is 15.8%.

Take `CCOC(=O)c1nc(C2=NN(c3ccccc3)C(c3ccc(Cl)cc3)C2)no1` (racemic): the Activity in the data set with Rattus norvegicus [1] worked out at 20.35%.

For the molecule `CCOC(=O)Cc1nc(C2=NN(c3ccccc3)C(c3ccc(Cl)cc3)C2)no1` (racemic), the Activity with Rattus norvegicus [1] turned out to be 30.94%.

As to `O=C(O)c1nc(C2=NN(c3ccccc3)C(c3ccc(Cl)cc3)C2)no1` (racemic), the Activity with Rattus norvegicus [1] is on record as 14.4%.

For the molecule `O=C(O)Cc1nc(C2=NN(c3ccccc3)C(c3ccc(Cl)cc3)C2)no1` (racemic), the Activity in the data set with Rattus norvegicus [1] was found to be 7.08%.

Turning to `NS(=O)(=O)c1ccc(N2N=C(c3nn[nH]n3)CC2c2ccc(Cl)cc2)cc1` (racemic), the Activity in the data set on Rattus norvegicus [1] is on record as 54.58%; in the data set with Rattus norvegicus [3], “Non-toxic”. In addition, the inhibition in data set [2] was found to be 7%. For the same molecule, in the data set on Rattus norvegicus [4], the inhibition in vivo at 100 mg/kg was 30.1%.

Consider `Cn1nnc(C2=NN(c3ccccc3)C(c3ccc(Cl)cc3)C2)n1` (racemic), for which the Activity with Rattus norvegicus [1] amounted to 34.31%.

For the molecule `Cn1nnc(C2=NN(c3ccc(S(N)(=O)=O)cc3)C(c3ccc(Cl)cc3)C2)n1` (racemic), the Activity with Rattus norvegicus [1] is on record as 48.58%; in the data set with Rattus norvegicus [3] it was “Non-toxic”. This molecule also had an inhibition in data set [2] of 11%. Further, in the data set on Rattus norvegicus [4], the inhibition in vivo at 100 mg/kg was 23.7%.

Take `O=C([O-])Cc1ccccc1Nc1c(Cl)cccc1Cl.[Na+]` [DICLOFENAC SODIUM]: the Activity with Rattus norvegicus [1] is on record as 50.93%; with Rattus norvegicus [3], “Toxic”. Also, the inhibition in vivo at 100 mg/kg in the data set on Rattus norvegicus [4] came to 76.6%.
